The values that follow come from patent publication US11041000B2, “Peptide inhibitors of interleukin-23 receptor and their use to treat inflammatory diseases” (priority 2019, dated 2021).

Numbered stars: 1 amine (or outer) side, 2 acyl side, 3 side chain; on linkers, the order of the positions; unused ones are H or OH. Bridge positions count the residues as written; N and C are the ends. Square brackets hold non-standard residues; d marks the D form. Peptide text beside a SMILES is read from it. X3 = CCc1ccc2c(C[C@H](N[*:1])C(=O)[*:2])c[nH]c2c1; Trp(7-Me) = Cc1cccc2c(C[C@H](N)C(=O)O)c[nH]c12; 2Nal = N[C@@H](Cc1ccc2ccccc2c1)C(=O)O; d2Nal = N[C@H](Cc1ccc2ccccc2c1)C(=O)O; AEF = NCCOc1ccc(C[C@H](N)C(=O)O)cc1; Cit = NC(=O)NCCC[C@H](N)C(=O)O; Pen = CC(C)(S)[C@H](N)C(=O)O; hLeu = CC(C)CC[C@H](N)C(=O)O; αMeK = C[C@](N)(CCCCN)C(=O)O; Aib = CC(C)(N)C(=O)O; βAla = NCCC(=O)O; Sar = CNCC(=O)O

Common to all, as to format: in vitro ADME
The nature of data set [1]: Stability in simulated intestinal fluid (SIF). The settings on record: simulated intestinal fluid with pancreatin, pH 6.8, 37° C., matrix is 100 fold dilution of standard SIF concentration; for SIF t½: 20 μM; for half-life at 20 μM: read-out: SIF t½ (converted).
Data set [2] can be described thus: Stability in human fecal homogenate. The settings on record: 20% fecal homogenate (supernatant), pH 6.8, 20% human fecal homogenate, anaerobic, 37° C., read-out: t½: Human Feces anaerobic (converted). The protocol:
(§1) Centrifuged the homogenate at 2800×g for 15 min. The supernatant is taken out and used for incubations. […] The final test compound concentration was 20 μM.

A short description of data set [3]: Stability in cynomolgus monkey fecal homogenate. The settings on record: 20% fecal homogenate (supernatant), pH 6.8, 20% cynomolgus monkey fecal homogenate, anaerobic, 37° C., read-out: t½: Monkey Feces anaerobic (converted). As for the experimental part: as §1
The nature of data set [4]: Stability in rat plasma. The settings on record: both sexes, SD rat plasma, EDTA, 37° C., read-out: t½: Rat Plasma EDTA (converted).
Protocol: Peptides of interest (20 μM) were incubated with pre-warmed rat plasma (SD rat, mixed gender pooled, EDTA, filtered through 0.22 μm, BioreclamationIVT) at 37° C. […] Quenched samples were stored at 4° C. until the end of the experiment and centrifuged at 4,000 rpm for 10 minutes. The supernatant were diluted 1:1 with deionized water and analyzed using LC-MS. Percentage remaining at each time point was calculated based on the peak area ratio (analyte over internal standard) relative to the initial level at time zero. Half-lives were calculated by fitting to a first-order exponential decay equation using GraphPad.

With `CC(=O)NCCCC[C@@H]1NC(=O)[C@H](Cc2c[nH]c3c(C)cccc23)NC(=O)[C@H]([C@@H](C)O)NC(=O)[C@H](CCC(C)C)NC(=O)[C@@H](NC(C)=O)C(C)(C)SSC(C)(C)[C@@H](C(=O)N[C@@H](Cc2ccc(OCCN)cc2)C(=O)N[C@@H](Cc2ccc3ccccc3c2)C(=O)N[C@@](C)(CCCCN)C(=O)N[C@@H](CCCCNC(C)=O)C(=O)N[C@@H](CC(N)=O)C(=O)N[C@H](CC(C)C)C(N)=O)NC1=O` [compound 337] (Ac-[Pen][hLeu]T[Trp(7-Me)]K(Ac)[Pen][AEF][2Nal][αMeK]K(Ac)N[dL]-NH2; disulfide 1-6), the “SIF t½” value in data set [1] is 24 h. Moreover, the half-life at 20 μM in data set [2], in data set [3] and in data set [4] was over 24 h in each case.
With `CC(=O)NCCCC[C@H](NC(=O)[C@](C)(CCCCN)NC(=O)[C@H](Cc1ccc2ccccc2c1)NC(=O)[C@H](Cc1ccc(OCCN)cc1)NC(=O)[C@H]1NC(=O)[C@H](CCCNC(N)=O)NC(=O)[C@H](Cc2c[nH]c3c(C)cccc23)NC(=O)[C@H]([C@@H](C)O)NC(=O)[C@H](CC(N)=O)NC(=O)[C@@H](NC(C)=O)C(C)(C)SSC1(C)C)C(=O)N[C@@H](CC(N)=O)C(=O)N(C)CC(N)=O` [compound 339] (Ac-[Pen]NT[Trp(7-Me)][Cit][Pen][AEF][2Nal][αMeK]K(Ac)N[Sar]-NH2; disulfide 1-6), the “SIF t½” value in data set [1] was 24 h. The half-life at 20 μM in data set [2] is over 24 h; in data set [3], 18 h; in data set [4], over 24 h.
Turning to `CC(=O)NCCCC[C@H](NC(=O)[C@](C)(CCCCN)NC(=O)[C@H](Cc1ccc2ccccc2c1)NC(=O)[C@H](Cc1ccc(OCCN)cc1)NC(=O)[C@H]1NC(=O)[C@H](CCCNC(N)=O)NC(=O)[C@H](Cc2c[nH]c3c(C)cccc23)NC(=O)[C@H]([C@@H](C)O)NC(=O)[C@H](CC(N)=O)NC(=O)[C@@H](NC(C)=O)C(C)(C)SSC1(C)C)C(=O)N[C@@H](CC(N)=O)C(=O)NC(C)(C)C(=O)NCCC(N)=O` [compound 340] (Ac-[Pen]NT[Trp(7-Me)][Cit][Pen][AEF][2Nal][αMeK]K(Ac)N[Aib][βAla]-NH2; disulfide 1-6), the half-life at 20 μM in data set [1] is 17 h; in data set [2], over 24 h; in data set [3], over 24 h; in data set [4], over 24 h.
`CC(=O)NCCCC[C@H](NC(=O)[C@](C)(CCCCN)NC(=O)[C@H](Cc1ccc2ccccc2c1)NC(=O)[C@H](Cc1ccc(OCCN)cc1)NC(=O)[C@H]1NC(=O)[C@H](CCCNC(N)=O)NC(=O)[C@H](Cc2c[nH]c3c(C)cccc23)NC(=O)[C@H]([C@@H](C)O)NC(=O)[C@H](CC(N)=O)NC(=O)[C@@H](NC(C)=O)C(C)(C)SSC1(C)C)C(=O)N[C@@H](CC(N)=O)C(=O)NC(C)(C)C(=O)NCC(N)=O` [compound 341] (Ac-[Pen]NT[Trp(7-Me)][Cit][Pen][AEF][2Nal][αMeK]K(Ac)N[Aib]G-NH2; disulfide 1-6): the half-life at 20 μM in data set [1] was 17 h; in data set [2] it was over 24 h; in data set [3], over 24 h; in data set [4] it was over 24 h.
On to `CC(=O)NCCCC[C@H](NC(=O)[C@](C)(CCCCN)NC(=O)[C@H](Cc1ccc2ccccc2c1)NC(=O)[C@H](Cc1ccc(OCCN)cc1)NC(=O)[C@H]1NC(=O)[C@H](CCCNC(N)=O)NC(=O)[C@H](Cc2c[nH]c3c(C)cccc23)NC(=O)[C@H]([C@@H](C)O)NC(=O)[C@H](CC(N)=O)NC(=O)[C@@H](NC(C)=O)C(C)(C)SSC1(C)C)C(=O)N[C@@H](CC(N)=O)C(=O)NC(C)(C)C(=O)N[C@@H](C)C(N)=O` [compound 342] (Ac-[Pen]NT[Trp(7-Me)][Cit][Pen][AEF][2Nal][αMeK]K(Ac)N[Aib]A-NH2; disulfide 1-6), for which the half-life at 20 μM is 16 h in data set [1], 12 h in data set [2], 15 h in data set [3] and over 24 h in data set [4].
The like results for `CC(=O)NCCCC[C@H](NC(=O)[C@](C)(CCCCN)NC(=O)[C@H](Cc1ccc2ccccc2c1)NC(=O)[C@H](Cc1ccc(OCCN)cc1)NC(=O)[C@H]1NC(=O)[C@H](CCCNC(N)=O)NC(=O)[C@H](Cc2c[nH]c3c(C)cccc23)NC(=O)[C@H]([C@@H](C)O)NC(=O)[C@H](CC(N)=O)NC(=O)[C@@H](NC(C)=O)C(C)(C)SSC1(C)C)C(=O)N[C@@H](CC(N)=O)C(=O)NC(C)(C)C(=O)N[C@H](CCCCN)C(N)=O` [compound 344] (Ac-[Pen]NT[Trp(7-Me)][Cit][Pen][AEF][2Nal][αMeK]K(Ac)N[Aib][dK]-NH2; disulfide 1-6) were, in that order, 9 h, over 24 h, over 24 h and over 24 h.
`CC(=O)NCCCC[C@H](NC(=O)[C@](C)(CCCCN)NC(=O)[C@H](Cc1ccc2ccccc2c1)NC(=O)[C@H](Cc1ccc(OCCN)cc1)NC(=O)[C@H]1NC(=O)[C@H](CCCNC(N)=O)NC(=O)[C@H](Cc2c[nH]c3c(C)cccc23)NC(=O)[C@H]([C@@H](C)O)NC(=O)[C@H](CC(N)=O)NC(=O)[C@@H](NC(C)=O)C(C)(C)SSC1(C)C)C(=O)N[C@@H](CC(N)=O)C(=O)NC(C)(C)C(=O)N[C@H](Cc1ccccc1)C(N)=O` [compound 346] (Ac-[Pen]NT[Trp(7-Me)][Cit][Pen][AEF][2Nal][αMeK]K(Ac)N[Aib][dF]-NH2; disulfide 1-6): the half-life at 20 μM in data set [1] is 19 h; in data set [2], over 24 h; in data set [3] it was over 24 h; in data set [4] it was 24 h.
Consider `CC(=O)NCCCC[C@H](NC(=O)[C@](C)(CCCCN)NC(=O)[C@H](Cc1ccc2ccccc2c1)NC(=O)[C@H](Cc1ccc(OCCN)cc1)NC(=O)[C@H]1NC(=O)[C@H](CCCNC(N)=O)NC(=O)[C@H](Cc2c[nH]c3c(C)cccc23)NC(=O)[C@H]([C@@H](C)O)NC(=O)[C@H](CC(N)=O)NC(=O)[C@@H](NC(C)=O)C(C)(C)SSC1(C)C)C(=O)N[C@@H](CC(N)=O)C(=O)NC(C)(C)C(=O)N[C@H](Cc1ccc(O)cc1)C(N)=O` [compound 347] (Ac-[Pen]NT[Trp(7-Me)][Cit][Pen][AEF][2Nal][αMeK]K(Ac)N[Aib][dY]-NH2; disulfide 1-6), for which the half-life at 20 μM in data set [1] was 12 h; in data set [2], over 24 h; in data set [3], over 24 h; in data set [4] it was over 24 h.
For `CC(=O)NCCCC[C@H](NC(=O)[C@](C)(CCCCN)NC(=O)[C@H](Cc1ccc2ccccc2c1)NC(=O)[C@H](Cc1ccc(OCCN)cc1)NC(=O)[C@H]1NC(=O)[C@H](CCCNC(N)=O)NC(=O)[C@H](Cc2c[nH]c3c(C)cccc23)NC(=O)[C@H]([C@@H](C)O)NC(=O)[C@H](CC(N)=O)NC(=O)[C@@H](NC(C)=O)C(C)(C)SSC1(C)C)C(=O)N[C@@H](CC(N)=O)C(=O)NC(C)(C)C(=O)N[C@H](Cc1ccc2ccccc2c1)C(N)=O` [compound 348] (Ac-[Pen]NT[Trp(7-Me)][Cit][Pen][AEF][2Nal][αMeK]K(Ac)N[Aib][d2Nal]-NH2; disulfide 1-6), the half-life at 20 μM is 13 h in data set [1], over 24 h in data set [2], over 24 h in data set [3] and over 24 h in data set [4].
As for `CCc1ccc2c(C[C@@H]3NC(=O)[C@H]([C@@H](C)O)NC(=O)[C@H](CC(N)=O)NC(=O)[C@@H](NC(C)=O)C(C)(C)SSC(C)(C)[C@@H](C(=O)N[C@@H](Cc4ccc(OCCN)cc4)C(=O)N[C@@H](Cc4ccc5ccccc5c4)C(=O)N[C@@](C)(CCCCN)C(=O)N[C@@H](CCCCNC(C)=O)C(=O)N[C@@H](CC(N)=O)C(=O)N[C@H](CCCCN)C(N)=O)NC(=O)[C@H](CCCCNC(C)=O)NC3=O)c[nH]c2c1` [compound 349] (Ac-[Pen]NT[X3]K(Ac)[Pen][AEF][2Nal][αMeK]K(Ac)N[dK]-NH2; disulfide 1-6), in data set [1], the “SIF t½” value is 24 h. Further, the half-life at 20 μM in data set [2], in data set [3] and in data set [4] was over 24 h throughout.
Take `CC(=O)NCCCC[C@@H]1NC(=O)[C@H](Cc2c(C)[nH]c3ccccc23)NC(=O)[C@H]([C@@H](C)O)NC(=O)[C@H](CC(N)=O)NC(=O)[C@@H](NC(C)=O)C(C)(C)SSC(C)(C)[C@@H](C(=O)N[C@@H](Cc2ccc(OCCN)cc2)C(=O)N[C@@H](Cc2ccc3ccccc3c2)C(=O)N[C@@](C)(CCCCN)C(=O)N[C@@H](CCCCNC(C)=O)C(=O)N[C@@H](CC(N)=O)C(=O)N[C@H](CCCCN)C(N)=O)NC1=O` [compound 351]: the half-life at 20 μM is 12 h in data set [1], over 24 h in data set [2], over 24 h in data set [3] and over 24 h in data set [4].
Take `CC(=O)NCCCC[C@@H]1NC(=O)[C@H](Cc2c[nH]c3c(C)cccc23)NC(=O)[C@H]([C@@H](C)O)NC(=O)[C@H](CC(N)=O)NC(=O)[C@@H](NC(C)=O)C(C)(C)SSC(C)(C)[C@@H](C(=O)N[C@@H](Cc2ccc(OCCN)cc2)C(=O)N[C@@H](Cc2ccc3ccccc3c2)C(=O)N[C@@](C)(CCCCN)C(=O)N[C@@H](CCCCNC(C)=O)C(=O)N[C@@H](CO)C(=O)N[C@H](CCCCN)C(N)=O)NC1=O` [compound 352]: the half-life at 20 μM in data set [1] was 7 h; in data set [2], over 24 h; in data set [3], over 24 h; in data set [4], over 24 h.
